Marks after values point to notes of the source that are not given here.
Legend:
A549 cells = assay: Inhibition of internalization of P. aeruginosa strain PAO1 into A549 cells; assay type: cell-based, human; details: 1 nM peptide
Experimental: WI-38 (human diploid lung cell line, ATCC. no. CCL-75) and A549 cells (human lung carcinoma cells, ATCC no. CCL-185) were obtained from the ATCC and grown according to their instructions.
Bacterial ingestion assay. Cells were released from monolayers in tissue culture flasks by 5 min. of incubation with trypsin-versene mixture (BioWhitaker, Walkersville, Md.), washed, counted and seeded into 96-well tissue culture plates at 10^5 cells/well in supplemented F-12 medium and incubated at 37° C. in 5% CO2. Fresh cultures of P. aeruginosa grown overnight at 37° C. on a tryptic soy agar plate were suspended in supplemented F-12 medium to prepare the bacterial inoculum. Then 10^6 colony forming units (cfu) of the bacterial inoculum were added per well of 10^5 epithelial cells. […] Three to 9 replicates were obtained per point, and analyzed using analysis of variance (ANOVA) and the Fisher PLSD statistic to determine pairwise differences.
Inhibition of ingestion in the presence of membranes isolated from C127 cells, monoclonal antibodies to extracellular domains of CFTR, or synthetic peptides corresponding to the first or fourth extracellular domains of CFTR was evaluated by adding these materials to the bacteria prior to adding them directly into wells for evaluation of bacterial uptake. […]

[1] = tested on: transformed human airway epithelial cells (CFT1-LCFSN line); assay: Inhibition of internalization of P. aeruginosa strain 149 into CFT1-LCFSN cells (bacterial ingestion assay); assay type: cell-based; details: strain 149, CFT1-LCFSN cells
From the text: Cell lines. CFT1-LCFSN cells, carrying a retrovirally introduced chromosomal copy of the wild-type human CFTR gene were kindly provided by J. Olsen, J. Yankaskis and L. Johnson from The University of North Carolina, Chapel Hill, N.C.. The cell line parental to CFT1-LCFSN is designated CFT1; it is a line of human papilloma virus 18 E6/E7 transformed bronchial epithelial cells derived from a CF patient homozygous for ΔF508 CFTR. The CFT1-LCFSN cells have normal chloride ion conductance. CFT1-ΔF508 cells are derived from CFT1 cells and carry a cDNA introduced by a retrovirus vector that encodes the ΔF508 mutant form of CFTR. Cells were grown in supplemented F-12 medium as described in 5% CO2 at 37° C.
Bacterial strains. P. aeruginosa strains used include PAO1, a well-characterized laboratory strain, and strains 149 and 324, non-mucoid, LPS-smooth clinical isolates of P. aeruginosa from CF patients early in the course of infection. Fresh cultures of P. aeruginosa grown overnight at 37° C. on a tryptic soy agar plate were suspended in supplemented medium to prepare the bacterial inoculum. Approximately 10^6 cfu of the bacterial inoculum were added per well of 10^5, epithelial cells.
Reagents for inhibition of ingestion assays. Membranes were prepared from C127 cells as described by O'Riordan et al.. Membranes were suspended in 150 mM NaCl, 50 mM Tris, pH 7.5 and 1 mM EDTA and added at the indicated concentration to suspensions of P. aeruginosa strains prior to adding this mixture to CFT1-LCFSN cells to measure bacterial uptake. Membranes from CEM/VbI cells expressing P-glycoprotein and membranes from control CEM cells lacking P-glycoprotein were obtained from James Croop of Harvard Medical School. Purified (˜85%) recombinant CFTR was obtained from Genzyme Corp., and prepared as described. The protein was solubilized in 100 mM NaCl, 10 mM Tris, pH 8.0, 2 mM di-thio-threitol and 0.1% sodium dodecyl sulfate. Monoclonal antibodies raised to synthetic peptides corresponding to the first (MAb CF3) and fourth (MAb CF4) predicted extracellular domains of CFTR, as well as a MAb specific to a peptide representing the carboxy-terminal 14 amino acids of mature CFTR (MAb CF2) were provided by Dr. George Banting, University of Bristol, Bristol, UK [12]. Synthetic peptides were obtained from Chiron Mimetopes, San Diego, Calif. Peptide GRIIASYDPDNKEER (15 amino acids) (SEQ.ID.NO. 3) represents amino acids 103-117 of mature CFTR, peptide […] (31 amino acids) (SEQ.ID.NO. 4) represents amino acids 881-911 of mature CFTR. Peptides were made up as a stock solution in F-12 medium containing 1 μM/μl based on the purity reported by the manufacturer. Peptides were diluted in F-12 tissue culture medium prior to use in assays.
Bacterial ingestion assay. Cells were released from monolayers in tissue culture flasks by 5 min. of incubation with trypsin-versene mixture (BioWhitaker, Walkersville, Md.), washed, counted and seeded into 96-well tissue culture plates at 10^5 cells/well in supplemented F-12 medium and incubated at 37° C. in 5% CO2. Fresh cultures of P. aeruginosa grown overnight at 37° C. on a tryptic soy agar plate were suspended in supplemented F-12 medium to prepare the bacterial inoculum. Then 10^6 colony forming units (cfu) of the bacterial inoculum were added per well of 10^5 epithelial cells. Bacteria were allowed to invade the epithelial cells for 3 to 4 hours at 37° C., after which nonadherent bacteria were removed by washing. The remaining steps of the assay and the steps involved in the controls have previously been described. Three to 9 replicates were obtained per point, and analyzed using analysis of variance (ANOVA) and the Fisher PLSD statistic to determine pairwise differences. […]

Sequence | Mean cfu (standard deviation) of P. aeruginosa internalized (A549 cells) | Mean cfu of P. aeruginosa internalized (standard deviation) ([1]; 0.001 nanomoles peptide) | Mean cfu of P. aeruginosa internalized (standard deviation) ([1]; 0.01 nanomoles peptide) | Mean cfu of P. aeruginosa internalized (standard deviation) ([1]; 0.1 nanomoles peptide) | Mean cfu of P. aeruginosa internalized (standard deviation) ([1]; 1 nanomoles peptide)
GRIIASYDPDNKEER (listed as Homo Sapiens) [First domain] | 3.2833 × 10^4 (4.32 × 10^3)^a cfu | 5.73 × 10^4 (4.006 × 10^3) cfu | 1.705 × 10^4 (2.1333 × 10^3)^a cfu | 7.0167 × 10^3 (8.542 × 10^2)^a cfu | 3.7833 × 10^3 (4.491 × 10^2)^a cfu
LWLLGNTPLQDKGNSTHSRNNSYAVIITSTS (listed as Homo Sapiens) [Fourth domain, reference compound] | 8.7333 × 10^4 (1.1506 × 10^4) cfu | 4.752 × 10^4 (5.9915 × 10^3) cfu | 4.86 × 10^4 (4.6463 × 10^3) cfu | 5.528 × 10^4 (6.0598 × 10^3) cfu | 5.735 × 10^4 (4.0009 × 10^3) cfu
